Experimental data reported in patent publication US10660338B2, “Sporocidal disinfectant or sanitising composition” (priority 2014, dated 2020).

Experiments:
[1] = test system: spores; settings: background statement; cited from earlier work
[2] = test system: spores; assay: Sporocidal action of peracetic acid (general statements); type: cell-based
[3] = Dye duration (lifetime before bleaching); type: physicochemical
Method: and wherein the colour indicator comprises a first non-mordant dye having a first colour and being bleachable after a first dye lifetime of 0.5 to 10 minutes in a test solution at 20° C. to 40° C. and pH8.0 to 8.5 containing 0.05 wt % to 0.15 wt % of the dye and 45 wt % to 55 wt % of sodium percarbonate;
a second non-mordant dye having a second colour different from the first colour and bleachable after a second dye lifetime of not less than 24 hours in the test solution; and
an optional third non-mordant dye having a third colour different from the first and second colours and bleachable after a third dye lifetime of not less than 36 hours in the test solution.

Compound	Concentration at which sporocidal [1] [ppm]	Concentration sufficient to provide sporicidal action [2]	DURATION [3] [min]
CC(=O)OO [Peracetic acid]	4000	approximately 1000 ppm	
Cc1ccc(Nc2ccc(O)c3c2C(=O)c2ccccc2C3=O)c(S(=O)(=O)[O-])c1.[Na+] [Acid Violet 43]			5
O=S(=O)(O)c1cc(S(=O)(=O)O)c2c(/N=N\c3ccc(S(=O)(=O)O)c4ccccc34)c(O)ccc2c1 [Acid Red 18]			30
